Test results published in patent US8466162B2, “5-alkynyl-pyridines” (Boehringer Ingelheim International GmbH, priority 2011, dated 2013).

Columns and labels:
PI3Kalpha = target: T1, PI3Kalpha (Homo sapiens, UniProt P42336); assay: Inhibition of PI3Kalpha-induced PIP-2 phosphorylation (filter-binding assay, 33P-ATP); type: biochemical; conditions: PI3 Kinase alpha (p85alpha/His-p110alpha), 1 μM ATP; read-out: IC50 PI3Kα
T1 construct: His (N); made in house; host or cells: SF9 insect cells (baculovirus co-infection)
T1 sequence (P27986 whole entry): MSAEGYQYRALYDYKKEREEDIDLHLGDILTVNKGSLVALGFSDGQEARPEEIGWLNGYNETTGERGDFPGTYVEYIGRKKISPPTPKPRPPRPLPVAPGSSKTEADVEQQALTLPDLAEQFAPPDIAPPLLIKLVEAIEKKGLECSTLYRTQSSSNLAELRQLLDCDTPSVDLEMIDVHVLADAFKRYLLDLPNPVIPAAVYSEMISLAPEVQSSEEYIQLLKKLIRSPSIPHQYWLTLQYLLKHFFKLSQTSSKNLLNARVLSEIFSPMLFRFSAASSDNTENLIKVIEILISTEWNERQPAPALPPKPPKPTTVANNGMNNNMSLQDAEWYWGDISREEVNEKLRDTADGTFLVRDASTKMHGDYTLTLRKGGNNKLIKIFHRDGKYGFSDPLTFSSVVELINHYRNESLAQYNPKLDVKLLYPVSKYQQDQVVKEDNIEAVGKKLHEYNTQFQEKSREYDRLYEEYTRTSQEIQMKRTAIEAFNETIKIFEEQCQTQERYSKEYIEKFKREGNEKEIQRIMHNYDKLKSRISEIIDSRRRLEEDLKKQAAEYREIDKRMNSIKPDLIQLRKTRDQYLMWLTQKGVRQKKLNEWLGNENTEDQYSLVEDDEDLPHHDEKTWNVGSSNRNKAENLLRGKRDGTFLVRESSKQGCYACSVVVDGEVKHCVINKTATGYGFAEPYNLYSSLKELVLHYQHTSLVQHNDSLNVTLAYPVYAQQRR
T1 sequence (P42336 whole entry): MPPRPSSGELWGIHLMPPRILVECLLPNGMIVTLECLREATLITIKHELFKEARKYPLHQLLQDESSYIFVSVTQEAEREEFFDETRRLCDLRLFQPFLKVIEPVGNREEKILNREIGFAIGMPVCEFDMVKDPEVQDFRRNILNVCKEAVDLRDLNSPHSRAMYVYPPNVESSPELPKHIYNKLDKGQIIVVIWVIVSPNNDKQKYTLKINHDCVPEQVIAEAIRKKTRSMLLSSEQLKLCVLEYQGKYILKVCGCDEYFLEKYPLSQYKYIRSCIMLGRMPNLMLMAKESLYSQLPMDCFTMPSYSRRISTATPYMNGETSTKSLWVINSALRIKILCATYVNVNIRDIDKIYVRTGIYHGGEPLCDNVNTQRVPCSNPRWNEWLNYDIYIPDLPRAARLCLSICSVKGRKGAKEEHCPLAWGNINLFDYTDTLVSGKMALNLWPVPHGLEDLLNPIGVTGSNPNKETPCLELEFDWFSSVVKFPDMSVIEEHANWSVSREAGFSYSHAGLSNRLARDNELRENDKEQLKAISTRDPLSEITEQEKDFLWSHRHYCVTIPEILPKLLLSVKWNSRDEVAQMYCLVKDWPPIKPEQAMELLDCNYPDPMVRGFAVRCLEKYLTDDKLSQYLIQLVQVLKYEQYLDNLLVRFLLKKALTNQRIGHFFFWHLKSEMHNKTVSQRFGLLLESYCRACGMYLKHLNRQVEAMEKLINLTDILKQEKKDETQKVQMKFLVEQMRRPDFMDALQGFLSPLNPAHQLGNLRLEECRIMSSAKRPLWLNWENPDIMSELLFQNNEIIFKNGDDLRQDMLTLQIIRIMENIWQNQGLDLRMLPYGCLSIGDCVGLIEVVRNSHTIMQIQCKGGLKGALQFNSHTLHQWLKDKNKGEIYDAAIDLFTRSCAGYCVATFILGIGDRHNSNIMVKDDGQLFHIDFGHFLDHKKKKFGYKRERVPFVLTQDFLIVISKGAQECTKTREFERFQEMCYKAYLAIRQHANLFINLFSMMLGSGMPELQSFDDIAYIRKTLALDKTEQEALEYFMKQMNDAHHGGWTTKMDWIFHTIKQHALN

H460 cells = assay: alamarBlue H460 cell assay (antiproliferative/cytotoxicity); type: cell-based; conditions: NCI-H460; H460 human lung carcinoma cells
In short: (§1)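 EC50 values reflect antiproliferative or cytotoxic effect, taken from fluorometric alamarBlue signal (excitation 530-560 nm, emission 590 nm) corrected for a medium blank. Exposure lasted 5-6 days at concentrations up to 10 μM final.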

MB453 cells = assay: alamarBlue MB453 cell assay (antiproliferative/cytotoxicity); type: cell-based; conditions: Homo sapiens; MDA MB 453 breast cancer cell line
In short: as §1

U87 cells = assay: alamarBlue U87 cell assay (antiproliferative/cytotoxicity); type: cell-based; conditions: U-87MG human glioblastoma cells
In short: as §1

MCF7 cells = assay: alamarBlue MCF7 cell assay (antiproliferative/cytotoxicity); type: cell-based; conditions: MCF7 human breast cancer cell line
In short: as §1

BT474 cells = assay: alamarBlue BT474 cell assay (antiproliferative/cytotoxicity); type: cell-based; conditions: BT-474 human breast cancer cell line, 5-6 days incubation
In short: as §1

Structure (SMILES) | IC50 (PI3Kalpha) [nM] | EC50 (H460 cells) [nM] | EC50 (MB453 cells) [nM] | EC50 (U87 cells) [nM] | EC50 (MCF7 cells) [nM] | EC50 (BT474 cells) [nM]
Cc1ncc(C#Cc2c(C)ncnc2-c2cccc(CN(C)C)c2)cc1NS(C)(=O)=O [Example 41, N-{5-[4-(3-Dimethylaminomethyl-phenyl)-6-methyl-pyrimidin-5-ylethynyl]-2-methyl-pyridin-3-yl}-methanesulfonamide] | 9 | 2750 | 1160 | 25000 | 1860 | 1280
CCc1ncnc(-c2ccccc2OC)c1C#Cc1cnc(C)c(NS(C)(=O)=O)c1 [Example 62, N-{5-[4-Ethyl-6-(2-methoxy-phenyl)-pyrimidin-5-ylethynyl]-2-methyl-pyridin-3-yl}-methanesulfonamide] | 12 | 2760 | 2900 | 25000 | 1420 | ≥ 10000
CCc1ncnc(-c2cccc(OC(C)C)c2)c1C#Cc1cnc(C)c(NS(C)(=O)=O)c1 [Example 64, N-{5-[4-Ethyl-6-(3-isopropoxy-phenyl)-pyrimidin-5-ylethynyl]-2-methyl-pyridin-3-yl}-methanesulfonamide] | 2 | 606 | 621 | 888 | 309 | 615
CCc1ncnc(-c2ccc(OC)c(OC)c2)c1C#Cc1cnc(C)c(NS(C)(=O)=O)c1 [Example 1, N-{5-[4-(3,4-Dimethoxy-phenyl)-6-ethyl-pyrimidin-5-ylethynyl]-2-methyl-pyridin-3-yl}-methanesulfonamide] | 1 | 490 | 79 | 300 | 39 | 94
CCc1ncnc(-c2ccnc(OC)c2)c1C#Cc1cnc(C)c(NS(C)(=O)=O)c1 [Example 76, N-{5-[4-Ethyl-6-(2-methoxy-pyridin-4-yl)-pyrimidin-5-ylethynyl]-2-methyl-pyridin-3-yl}-methanesulfonamide] | 0.91 | 207 | 148 | 466 | 93 | 356

Further lines, with some results ahead:

IC50 (PI3Kalpha) [nM] | Structure (SMILES) | EC50 (H460 cells) [nM] | EC50 (MB453 cells) [nM] | EC50 (U87 cells) [nM] | EC50 (MCF7 cells) [nM] | EC50 (BT474 cells) [nM]
0.45 | CCc1nc(N)nc(-c2ccnc(C)c2)c1C#Cc1cnc(C)c(NS(=O)(=O)c2ccc(F)cc2F)c1 [Example 33, N-{5-[2-Amino-4-ethyl-6-(2-methyl-pyridin-4-yl)-pyrimidin-5-ylethynyl]-2-methyl-pyridin-3-yl}-2,4-difluoro-benzenesulfonamide] | 70 | 45 | 224 | 9 | 33
0.67 | COc1ncc(C#Cc2c(C)ncnc2-c2ccc(C(=O)N3CCN(C)CC3)c(F)c2)cc1NS(=O)(=O)c1ccc(F)cc1F [Example 46, 2,4-Difluoro-N-(5-{4-[3-fluoro-4-(4-methyl-piperazine-1-carbonyl)-phenyl]-6-methyl-pyrimidin-5-ylethynyl}-2-methoxy-pyridin-3-yl)-benzenesulfonamide] | 8 | 22 | 38 | 5 | 9
4 | CCc1ncnc(-c2ccc(F)cc2F)c1C#Cc1cnc(C)c(NS(C)(=O)=O)c1 [Example 63, N-{5-[4-(2,4-Difluoro-phenyl)-6-ethyl-pyrimidin-5-ylethynyl]-2-methyl-pyridin-3-yl}-methanesulfonamide] | 1110 | 1180 | 1880 | 734 | 1540
4 | Cc1ncc(C#Cc2c(C)ncnc2-c2ccccc2)cc1NS(C)(=O)=O [Example 42, N-[2-Methyl-5-(4-methyl-6-phenyl-pyrimidin-5-ylethynyl)-pyridin-3-yl]-methanesulfonamide] | 2260 | 1330 | 1810 | 239 | 1130
